Laboratory results as given in patent US6156700A, “3-(1,2-Benzisothiazol- and isoxazol-5-yl)-2,4(1H,3H)-pyrimidinedione or thione and 3-(1,2-benzisothiazol- and isoxazol-5-yl)-4(3H)-pyrimidinone or thione herbicidal agents” (American Cyanmid Company, priority 1998, dated 2000).

Assays:
Galium, Galium aparine = assay: Postemergence herbicidal evaluation, GALAP; type: in vivo
Outline: (§1)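 Visual 0–9 rating vs untreated control (stand, vigor, malformation, size, chlorosis, overall appearance), scored 4–5 wk post-spray. Two-week-old seedlings; compound in 50/50 acetone/water + 0.5% TWEEN 20, ~0.0157–0.500 kg/ha, 40 psi nozzle.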

[1] = tested on: Rice, Tebonnet, Oryza sativa; assay: Preemergence herbicidal evaluation, ORYSAT; type: in vivo, (L.) Tebonnet; conditions: 0.2500 kg/ha
Outline: (§2)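 Greenhouse preemergence test with soil-surface spray of compound (aqueous acetone, approx. 0.0156–0.500 kg per hectare) just after planting. Injury was scored visually on a 0–9 scale at 4–5 weeks.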

ORYSAT Rice, Tebonnet = assay: Rice tolerance, flooded paddy (Table IV); type: in vivo, Oryza sativa; parameters: scale not given here; conditions: crop tolerance
Outline: (§3)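 Herbicidal effect is scored visually on a rating scale three to four weeks after compounds, in aqueous/acetone 50/50 v/v, are added to flood water at roughly 0.0313 to 0.500 kg/ha. Plants: weeds 3 to 5 cm tall, rice at 1.5 to 2.5 leaves.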

[2] = tested on: Foxtail, Green, Setaria viridis; assay: Postemergence herbicidal evaluation, SETVI; type: in vivo, (L.) Beau
Outline: as §1

[3] = tested on: Morningglory Spp., Ipomoea Spp.; assay: Postemergence herbicidal evaluation, IPOSS; type: in vivo; conditions: 0.2500 kg/ha
Experimental: In the tests, seedling plants are grown in jiffy flats for about two weeks. The test compounds are dispersed in 50/50 acetone/water mixtures containing 0.5% TWEEN®20, a polyoxyethylene sorbitan monolaurate surfactant of Atlas Chemical Industries, in sufficient quantities to provide the equivalent of about 0.0157 kg to 0.500 kg per hectare of active compound when applied to the plants through a spray nozzle operating at 40 psi for a predetermined time. After spraying, the plants are placed on greenhouse benches and are cared for in accordance with conventional greenhouse procedures. From four to five weeks after treatment, the seedling plants are examined and rated according to the rating system set forth below. Where more than one test is involved for a given compound, the data are averaged.
(§4) Results of herbicide evaluation are expressed on a rating scale (0-9). The scale is based upon a visual observation of plant stand, vigor, malformation, size, chlorosis and overall plant appearance as compared with a control.

MOOVA Monochoria [4] = assay: Preemergence weed control, flooded paddy (Table III); type: in vivo, Monochoria vaginalis; parameters: scale not given here
Experimental: (§5) Preemergence herbicidal activity under flooded paddy conditions is determined as follows: plant seeds or propagating organs are planted in the top 0.5 cm of silt loam soil in 32 oz. plastic containers with a diameter of 10.5 cm and no drainage holes. Water is added to these containers and maintained at 1.5 to 3 cm above the soil surface for the duration of the experiment. The test compounds are applied as aqueous/acetone mixtures 50/50 v/v pipetted directly into the flood water to give the equivalent of about 0.0313 to 0.500 kg/ha of active ingredient. The treated containers are placed on greenhouse benches and cared for in accordance with conventional greenhouse procedures. Three to four weeks after treatment, the test is terminated and each container is examined and herbicidal effect rated according to the rating system provided in Example 185. The compounds evaluated are reported by compound number given in Example 185.

[5] = tested on: SAGPY Arrowhead (Pygmaea); assay: as above; type: in vivo, Sagittaria pygmaea; parameters: scale not given here
Experimental: as §5

Corn, Field, Zea mays [6] = assay: Preemergence herbicidal evaluation, ZEAMX; type: in vivo, L.; conditions: 0.2500 kg/ha
Outline: as §2

[7] = tested on: ECHORC Watergrass (Calif.); assay: Preemergence weed control, flooded paddy (Table III); type: in vivo, Echinochloa oryzoides; parameters: scale not given here
Experimental: as §5

[8] = tested on: Velvetleaf, Abutilon theophrasti; assay: Preemergence herbicidal evaluation, ABUTH; type: in vivo, Medic.; conditions: 0.2500 kg/ha
Outline: as §2

[9] = tested on: Barnyardgrass, Echinochloa crus-galli; assay: Postemergence herbicidal evaluation, ECHCG; type: in vivo, (L.) Beau
Outline: as §1

[10] = tested on: Sicklepod, Cassia obtusifolia; assay: Postemergence herbicidal evaluation, CASOB; type: in vivo, L.
Outline: as §1

CYPIR Rice Flatsedge = assay: Preemergence weed control, flooded paddy (Table III); type: in vivo, Cyperus iria; parameters: scale not given here
Experimental: as §5

[11] = tested on: Sicklepod, Cassia obtusifolia; assay: Preemergence herbicidal evaluation, CASOB; type: in vivo, L.; conditions: 0.2500 kg/ha
Outline: as §2

[12] = tested on: Ragweed, Common, Ambrosia artemisifolia; assay: Postemergence herbicidal evaluation, AMBEL; type: in vivo, L.
Outline: as §1

[13] = tested on: Ragweed, Common, Ambrosia artemisifolia; assay: Preemergence herbicidal evaluation, AMBEL; type: in vivo, L.; conditions: 0.2500 kg/ha
Outline: as §2

[14] = tested on: Wheat, Winter, cv Riband, Triticum aestivum; assay: Postemergence herbicidal evaluation, TRZAWR; type: in vivo
Outline: as §1

[15] = tested on: Morningglory Spp., Ipomoea Spp.; assay: Preemergence herbicidal evaluation, IPOSS; type: in vivo; conditions: 0.2500 kg/ha
From the text: as §4
The preemergence herbicidal activity of the test compounds of the present invention is exemplified by the following tests in which the seeds of a variety of monocotyledonous and dicotyledonous plants are separately mixed with potting soil and planted on top of approximately one inch of soil in separate pint cups. After planting, the cups are sprayed with the selected aqueous acetone solution containing test compound in sufficient quantity to provide the equivalent of about 0.0156 to 0.500 kg per hectare of test compound per cup. The treated cups are then placed on greenhouse benches, watered and cared for in accordance with conventional greenhouse procedures. From four to five weeks after treatment, the tests are terminated and each cup is examined and rated according to the rating system provided in Example 185.
The compounds evaluated are reported by compound number given in Example 185.

Corn, Field, Zea mays [16] = assay: Postemergence herbicidal evaluation, ZEAMX; type: in vivo, L.
Outline: as §1

MOOVA Monochoria [17] = assay: Postemergence weed control, flooded paddy (Table IV); type: in vivo, Monochoria vaginalis; parameters: scale not given here
Outline: as §3

[18] = tested on: SAGPY Arrowhead (Pygmaea); assay: as above; type: in vivo, Sagittaria pygmaea; parameters: scale not given here
Outline: as §3

COC(=O)COc1ccc(C)cc1-c1nsc2ccc(-n3c(=O)cc(C(F)(F)F)n(C)c3=O)cc12 [Compound 2, Methyl {{2-{5-[3,6-dihydro-3-methyl-4-(trifluoromethyl) -2,6-dioxo-1(2H)-pyrimidinyl]-1,2-benzisothiazol-3-yl]-p-tolyl}oxy}acetate]
9.0: herbicide rating (0-9) (Galium, Galium aparine; 0.0630 kg/ha) | herbicide rating (0-9) (Galium, Galium aparine; 0.2500 kg/ha) | herbicide rating (0-9) ([2]; 0.0630 kg/ha) | herbicide rating (0-9) ([2]; 0.2500 kg/ha) | herbicide rating (0-9) [3] | herbicidal effect rating (MOOVA Monochoria [4]; 0.0625 kg/ha) | herbicidal effect rating (MOOVA Monochoria [4]; 0.1250 kg/ha) | herbicidal effect rating (MOOVA Monochoria [4]; 0.2500 kg/ha) | herbicidal effect rating (MOOVA Monochoria [4]; 0.5000 kg/ha) | herbicidal effect rating ([5]; 0.5000 kg/ha) | herbicidal effect rating ([7]; 0.0313 kg/ha) | herbicidal effect rating ([7]; 0.0625 kg/ha) | herbicidal effect rating ([7]; 0.1250 kg/ha) | herbicidal effect rating ([7]; 0.2500 kg/ha) | herbicidal effect rating ([7]; 0.5000 kg/ha) | herbicide rating (0-9) [8] | herbicide rating (0-9) ([9]; 0.0630 kg/ha) | herbicide rating (0-9) ([9]; 0.2500 kg/ha) | herbicide rating (0-9) ([10]; 0.2500 kg/ha) | herbicidal effect rating (CYPIR Rice Flatsedge; 0.0625 kg/ha) | herbicidal effect rating (CYPIR Rice Flatsedge; 0.1250 kg/ha) | herbicidal effect rating (CYPIR Rice Flatsedge; 0.2500 kg/ha) | herbicidal effect rating (CYPIR Rice Flatsedge; 0.5000 kg/ha) | herbicide rating (0-9) [11] | herbicide rating (0-9) ([12]; 0.0630 kg/ha) | herbicide rating (0-9) ([12]; 0.2500 kg/ha) | herbicide rating (0-9) [13] | herbicide rating (0-9) ([14]; 0.2500 kg/ha) | herbicide rating (0-9) [15] | herbicidal effect rating (MOOVA Monochoria [17]; 0.1250 kg/ha) | herbicidal effect rating (MOOVA Monochoria [17]; 0.2500 kg/ha) | herbicidal effect rating (MOOVA Monochoria [17]; 0.5000 kg/ha)
7.2: herbicide rating (0-9) ([14]; 0.0630 kg/ha)
7.0: herbicidal effect rating (ORYSAT Rice, Tebonnet; 0.2500 kg/ha) | herbicidal effect rating (MOOVA Monochoria [4]; 0.0313 kg/ha)
6.5: herbicide rating (0-9) ([10]; 0.0630 kg/ha)
4.0: herbicidal effect rating ([5]; 0.2500 kg/ha) | herbicidal effect rating ([18]; 0.5000 kg/ha)
0.0: herbicidal effect rating ([5]; 0.0313 kg/ha) | herbicidal effect rating ([5]; 0.0625 kg/ha) | herbicidal effect rating ([18]; 0.1250 kg/ha)
7.5: herbicide rating (0-9) (Corn, Field, Zea mays [16]; 0.2500 kg/ha)
3.0: herbicidal effect rating (ORYSAT Rice, Tebonnet; 0.1250 kg/ha)
8.0: herbicidal effect rating (ORYSAT Rice, Tebonnet; 0.5000 kg/ha) | herbicidal effect rating (CYPIR Rice Flatsedge; 0.0313 kg/ha) | herbicide rating (0-9) (Corn, Field, Zea mays [16]; 0.0630 kg/ha)
5.6: herbicide rating (0-9) (Corn, Field, Zea mays [6])
2.0: herbicidal effect rating ([5]; 0.1250 kg/ha) | herbicidal effect rating ([18]; 0.2500 kg/ha)
7.7: herbicide rating (0-9) [1]

COC(=O)C(C)Oc1cc(C)ccc1-c1nsc2ccc(-n3c(=O)cc(C(F)(F)F)n(C)c3=O)cc12 (stereo not drawn) [Compound 9, Methyl 2-{{6-{5-[3,6-dihydro-3-methyl-4-(trifluoromethyl)-2,6-dioxo-1(2H)-pyrimidinyl]-1,2-benzisothiazol-3-yl}-m-tolyl}oxy}propionate]
2.0: herbicidal effect rating ([5]; 0.0625 kg/ha) | herbicidal effect rating ([18]; 0.1250 kg/ha)
7.0: herbicidal effect rating (ORYSAT Rice, Tebonnet; 0.1250 kg/ha)
9.0: herbicide rating (0-9) [1] | herbicidal effect rating (ORYSAT Rice, Tebonnet; 0.2500 kg/ha) | herbicidal effect rating (ORYSAT Rice, Tebonnet; 0.5000 kg/ha) | herbicide rating (0-9) ([2]; 0.2500 kg/ha) | herbicide rating (0-9) [3] | herbicidal effect rating (MOOVA Monochoria [4]; 0.0313 kg/ha) | herbicidal effect rating (MOOVA Monochoria [4]; 0.0625 kg/ha) | herbicidal effect rating (MOOVA Monochoria [4]; 0.1250 kg/ha) | herbicidal effect rating (MOOVA Monochoria [4]; 0.2500 kg/ha) | herbicidal effect rating (MOOVA Monochoria [4]; 0.5000 kg/ha) | herbicidal effect rating ([5]; 0.5000 kg/ha) | herbicide rating (0-9) (Corn, Field, Zea mays [6]) | herbicidal effect rating ([7]; 0.0313 kg/ha) | herbicidal effect rating ([7]; 0.0625 kg/ha) | herbicidal effect rating ([7]; 0.1250 kg/ha) | herbicidal effect rating ([7]; 0.2500 kg/ha) | herbicidal effect rating ([7]; 0.5000 kg/ha) | herbicide rating (0-9) [8] | herbicide rating (0-9) ([9]; 0.2500 kg/ha) | herbicide rating (0-9) ([10]; 0.2500 kg/ha) | herbicidal effect rating (CYPIR Rice Flatsedge; 0.0313 kg/ha) | herbicidal effect rating (CYPIR Rice Flatsedge; 0.0625 kg/ha) | herbicidal effect rating (CYPIR Rice Flatsedge; 0.1250 kg/ha) | herbicidal effect rating (CYPIR Rice Flatsedge; 0.2500 kg/ha) | herbicidal effect rating (CYPIR Rice Flatsedge; 0.5000 kg/ha) | herbicide rating (0-9) [11] | herbicide rating (0-9) ([12]; 0.2500 kg/ha) | herbicide rating (0-9) [13] | herbicide rating (0-9) ([14]; 0.2500 kg/ha) | herbicide rating (0-9) [15] | herbicide rating (0-9) (Corn, Field, Zea mays [16]; 0.2500 kg/ha) | herbicidal effect rating (MOOVA Monochoria [17]; 0.1250 kg/ha) | herbicidal effect rating (MOOVA Monochoria [17]; 0.2500 kg/ha) | herbicidal effect rating (MOOVA Monochoria [17]; 0.5000 kg/ha) | herbicidal effect rating ([18]; 0.2500 kg/ha) | herbicidal effect rating ([18]; 0.5000 kg/ha)
0.0: herbicidal effect rating ([5]; 0.0313 kg/ha)
8.0: herbicide rating (0-9) (Galium, Galium aparine; 0.2500 kg/ha) | herbicidal effect rating ([5]; 0.1250 kg/ha) | herbicidal effect rating ([5]; 0.2500 kg/ha)
